Measured values published in ChEMBL document CHEMBL1155798, “Enhanced affinity of ketotifen toward tamarind seed polysaccharide in comparison with hydroxyethylcellulose and hyaluronic acid: a nuclear magnetic resonance investigation” (Bioorg Med Chem, 2008).
Active and inactive are the calls of the source. The rule behind the calls is not given here.

Columns and labels:
[1] = system: Tamarindus indica; experiment: Binding affinity to tamarind seed polysaccharide by NMR
[2] = system: Tamarindus indica; experiment: Binding affinity to tamarind seed polysaccharide by dynamic dialysis

Activity [1]: Active
Activity [2]: Active
Compound: CN1CCC(=C2c3ccccc3CC(=O)c3sccc32)CC1
